Measurements: patent publication US8642585B2, “Indanyloxydihydrobenzofuranylacetic acids” (Boehringer Ingelheim International GmbH, priority 2012, dated 2014)

biological target: human GPR40 receptor (Homo sapiens, UniProt O14842); test: Assay I: IP1 accumulation (IPOne HTRF) in 1321N1 cells stably expressing human GPR40; assay type: cell-based; settings: 1321N1 cells expressing human GPR40, stimulation 1 hour at 37° C., 10% CO2, final LiCl 50 mM
Experimental: IP1 accumulation measurements using the IPOne assay system—1321N1 cells stably expressing human GPR40 receptor (Euroscreen, Belgium) are seeded 24 h before the assay in black clear-bottom collagen-coated 384-well plates in culture medium containing 10% FCS, 1% Na-Pyruvate and 400 μg/mL G418. IP1 is assayed according to the Manufacturers description (Cisbio Bioassays, France). In brief, the assay is started by substitution of the culture medium by stimulation buffer (Hepes 10 mM, CaCl2 1 mM, MgCl2 0.5 mM, KCl 4.2 mM, NaCl 146 mM and glucose 5.5 mM, pH 7.4) without LiCl. Cells are stimulated for 1 hour at 37° C., 10% CO2 by addition of the compounds that are diluted in stimulation buffer containing LiCl yielding a final LiCl concentration of 50 mM. Assays are stopped by adding HTRF-conjugates (IP1-d2 and Anti-IP1 cryptate Tb) and lysis buffer, provided by the manufacturer. After an incubation time of 1 hour at room temperature plates are measured using an EnVision™, Perkin Elmer. The obtained fluorescence ratios at 665/615 nM are then used to calculate the pEC50 values using GraphPad Prism 5 (Graphpad Software Inc, USA) by interpolation using an IP1 reference curve and subsequent sigmoidal curve fitting allowing for a variable hill slope.

human GPR40 receptor, sequence (O14842 whole entry): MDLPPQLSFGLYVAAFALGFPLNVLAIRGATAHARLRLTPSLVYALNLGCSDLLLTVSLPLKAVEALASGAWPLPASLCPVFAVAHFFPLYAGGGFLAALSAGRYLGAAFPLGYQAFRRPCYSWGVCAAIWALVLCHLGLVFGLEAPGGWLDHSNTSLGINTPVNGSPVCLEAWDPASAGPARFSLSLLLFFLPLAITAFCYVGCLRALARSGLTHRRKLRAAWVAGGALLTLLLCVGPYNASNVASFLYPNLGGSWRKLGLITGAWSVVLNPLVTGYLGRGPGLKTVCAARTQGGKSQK

In order of rising EC50:
1. Cc1cc(OCC2(C)COC2)cc(C)c1-c1ccc(F)c2c1CC[C@H]2Oc1ccc2c(c1)OC[C@H]2CC(=O)O [Example 1, 2-((S)-6-((R)-4-(2,6-dimethyl-4-((3-methyloxetan-3-yl)methoxy)phenyl)-7-fluoro-2,3-dihydro-1H-inden-1-yloxy)-2,3-dihydrobenzofuran-3-yl)acetic acid]  4 nM
2. Cc1cc(O[C@H]2CCOC2)cc(C)c1-c1ccc(F)c2c1CC[C@H]2Oc1ccc2c(c1)OC[C@H]2CC(=O)O [Example 8, 2-((S)-6-((R)-4-(2,6-Dimethyl-4-((S)-tetrahydrofuran-3-yloxy)phenyl)-7-fluoro-2,3-dihydro-1H-inden-1-yloxy)-2,3-dihydrobenzofuran-3-yl)acetic acid]  4 nM
3. Cc1cc(OCC2CCOC2)cc(C)c1-c1ccc(F)c2c1CC[C@H]2Oc1ccc2c(c1)OC[C@H]2CC(=O)O (stereo partly drawn) [Example 2, 2-((3S)-6-((1R)-4-(2,6-dimethyl-4-((tetrahydrofuran-3-yl)methoxy)phenyl)-7-fluoro-2,3-dihydro-1H-inden-1-yloxy)-2,3-dihydrobenzofuran-3-yl)acetic acid]  5 nM
4. Cc1cc(OCCC(C)(C)O)cc(C)c1-c1ccc(F)c2c1CC[C@H]2Oc1ccc2c(c1)OC[C@H]2CC(=O)O [Example 4, 2-((S)-6-((R)-7-Fluoro-4-(4-(3-hydroxy-3-methylbutoxy)-2,6-dimethylphenyl)-2,3-dihydro-1H-inden-1-yloxy)-2,3-dihydrobenzofuran-3-yl)acetic acid]  5 nM
5. Cc1cc(OC2CCC(O)C2)cc(C)c1-c1ccc(F)c2c1CC[C@H]2Oc1ccc2c(c1)OC[C@H]2CC(=O)O (stereo partly drawn) [Example 11, 2-((3S)-6-((1R)-7-Fluoro-4-(4-(3-hydroxycyclopentyloxy)-2,6-dimethylphenyl)-2,3-dihydro-1H-inden-1-yloxy)-2,3-dihydrobenzofuran-3-yl)acetic acid]  5 nM
6. Cc1cc(OCC2CCCO2)cc(C)c1-c1ccc(F)c2c1CC[C@H]2Oc1ccc2c(c1)OC[C@H]2CC(=O)O (stereo partly drawn) [Example 3, 2-((3S)-6-((1R)-4-(2,6-dimethyl-4-((tetrahydrofuran-2-yl)methoxy)phenyl)-7-fluoro-2,3-dihydro-1H-inden-1-yloxy)-2,3-dihydrobenzofuran-3-yl)acetic acid]  6 nM
7. Cc1cc(OC2CCOCC2)cc(C)c1-c1ccc(F)c2c1CC[C@H]2Oc1ccc2c(c1)OC[C@H]2CC(=O)O [Example 7, 2-((S)-6-((R)-4-(2,6-Dimethyl-4-(tetrahydro-2H-pyran-4-yloxy)phenyl)-7-fluoro-2,3-dihydro-1H-inden-1-yloxy)-2,3-dihydrobenzofuran-3-yl)acetic acid]  6 nM
8. Cc1cc(O[C@@H]2CCOC2)cc(C)c1-c1ccc(F)c2c1CC[C@H]2Oc1ccc2c(c1)OC[C@H]2CC(=O)O [Example 9, 2-((S)-6-((R)-4-(2,6-Dimethyl-4-((R)-tetrahydrofuran-3-yloxy)phenyl)-7-fluoro-2,3-dihydro-1H-inden-1-yloxy)-2,3-dihydrobenzofuran-3-yl)acetic acid]  9 nM
9. Cc1cc(OCC(C)(C)O)cc(C)c1-c1ccc(F)c2c1CC[C@H]2Oc1ccc2c(c1)OC[C@H]2CC(=O)O [Example 10, 2-((S)-6-((R)-7-Fluoro-4-(4-(2-hydroxy-2-methylpropoxy)-2,6-dimethylphenyl)-2,3-dihydro-1H-inden-1-yloxy)-2,3-dihydrobenzofuran-3-yl)acetic acid]  9 nM
10. Cc1cc(OCC[S+](C)[O-])cc(C)c1-c1ccc(F)c2c1CC[C@H]2Oc1ccc2c(c1)OC[C@H]2CC(=O)O (stereo partly drawn) [Example 5, 2-((3S)-6-((1R)-4-(2,6-Dimethyl-4-(2-(methylsulfinyl)ethoxy)phenyl)-7-fluoro-2,3-dihydro-1H-inden-1-yloxy)-2,3-dihydrobenzofuran-3-yl)acetic acid]  19 nM
11. Cc1cc(OCCS(C)(=O)=O)cc(C)c1-c1ccc(F)c2c1CC[C@H]2Oc1ccc2c(c1)OC[C@H]2CC(=O)O [Example 6, 2-((S)-6-((R)-4-(2,6-Dimethyl-4-(2-(methylsulfonyl)ethoxy)phenyl)-7-fluoro-2,3-dihydro-1H-inden-1-yloxy)-2,3-dihydrobenzofuran-3-yl)acetic acid]  22 nM
